Measured values: patent publication US20050245452A1, “Pharmaceutical use of novispirins” (Novozymes A/S, priority 2004, published 2005)

Legend:
[1] = tested on: P. acnes (erythromycin resistant); assay: MIC on Propionebacterium acnes, erythromycin resistant strain; format: cell-based; conditions: clinically resistant to clindamycin and erythromycin
Description: Minimal Inhibitory Concentration (MIC) of Novispirin G10 (SEQ ID NO: 16) was evaluated against P. acnes. Two strains were tested—one of which is clinically resistant to clindamycin and erythromycin.

[2] = tested on: Pseudomonas aeruginosa (ATCC 27853); assay: Pseudomonas aeruginosa wound infection in pigs (wound chambers, 4 hour time course); format: in vivo, Göttinger minipigs
Description: The bacterial strain, Pseudomonas aeruginosa, used in the study was ATCC 27853. The amino acid sequence of Novispirin G10 is shown in SEQ ID NO: 16.
Novispirin G10 was diluted in 0.01% acetic acid containing 0.1% BSA with a final concentration of 1 mg (substrate)/ml (solution); 100 micrograms/ml and 10 micrograms/ml. The carrier control was 0.01% acetic acid containing 0.1% BSA.
The chambers are made out of titanium, have a screw top cover (also made out of titanium) and have an inner diameter of 25 mm.
After providing permission to conduct experiments with vertebrates in compliance with German animal protection laws, Göttinger minipigs (Fa. Ellegaard, Dalmose, Denmark, male, No. 86242 and 86260, 12 months old, 35 kg weight) were chosen to implant the chambers on. The pigs were kept at least 2 weeks in the stable, fed a standard porcine diet and housed at 20° C. to 30° C. in an atmosphere of approximately 65% humidity with a light cycle of 12 hours on and 12 hours off. The pig used for this study appeared during the experiments clinically healthy—rectal temperature and body weight remained normal over the observed period.
Before wounding the skin was surgically prepared, washed with soap and desinfected with Octenisept (S&M, Norderstedt, Germany) for five minutes. Twelve wound chambers were implanted on the pigs back and flank between the base of the scapula and the iliac crest. The wounds were spaced a minimum of 5 cm apart and were created in four rows parallel to the columna vertebralis, two rows on each side of the columna vertebralis. The exact size and shape of the wounds were ensured by a special custom-made “round-scalpel”, which has a diameter of 33 mm. Epidermal, dermal subcutaneous tissue was removed, possible bleedings stanched by bipolar diathermy. The chambers were placed with an additionally secant v-incision at positions 6 respectively 12 o'clock on the musculus thoracicus longus fascia and the muscle fascia of the external ripcage muscles. The incisions were sutured with 4-0 Prolene followed by the closure of the chambers. Povidone-iodine salve (Betaisodonna-salve, Mundipharma, Austria) was smothered on the wound edges. The chambers were dressed with paraffin gauze (Jelonet, Smith & Nephew, Lohfelden, Germany) and sterile compresses (Johnson & Johnson, Gargrave, UK). Dressings were changed every second day under sedation (as described above).
Bacterial Background of each chamber was measured every second day to detect potential contamination. One contaminated chamber was detected. Eight days post operation all chambers were inoculated with bacteria.
For bacteria progeny, Pseudomonas aeruginosa (ATCC 27853) was plated on LB-Agar plates and incubated at 37° C. for 18 hours. One colony was picked, and transferred into 3 ml LB-Medium and grown over night at 37° C. at 300 rpm. The over night culture was diluted in 50 ml fresh LB-Medium and incubated for 2.5 hours at 37° C. at 200 rpm.
Bacteria were centrifuged at 4000 rpm, 5 min (Mergafuge 1.0 R, Heraeus, Hanau, Germany), and the pellet was resuspended in PBS. The amount of containing bacteria was determined by OD600 nm-measurement and calculated as follows: Colony forming Unit/ml=OD600 nm×2.5×10^8 (bacteria)
To inoculate one chamber, 5×10^8CFU were used.
The establishment of the infection was proven by the measurment of bacterial counts per chamber. All inoculated chambers were infected after two days.
At fourth day post infection, the antimicrobial effect of the testing substrate was measured in a time course of 4 hours in duration. Each chamber was cleaned before starting the time course, wound fluid was selected and blood clots were discarded. Before starting the time course each chamber was inoculated again with 1×10^8 CFU Pseudomonas aeruginosa to get an equal bacterial amount for each chamber. One ml of the prepared samples with diluted test substrate and carrier control were applied in selected chambers.
Each chamber was rinsed with the applied solution several times. […]

[3] = tested on: IFN-γ, TNF-α, IL4, IL-6 and IL-10 in lung supernatants; assay: Lung cytokine response (ELISA of lung supernatants) in P. aeruginosa lung infection in rats; format: in vivo, Lewis rat; parameters: Lung cytokine responses (Mean + SD): IL-4 / Lung cytokine responses (Mean + SD): IL-6 / Lung cytokine responses (Mean + SD): IL-10 / Lung cytokine responses (Mean + SD): IFN-gamma / Lung cytokine responses (Mean + SD): TNF-alpha: unit not given here
Description: The bacterial strain, Pseudomonas aeruginosa, used in the study is CF86/57388A (1997), which is isolated from a cystic fibrosis patient and keeps stable mucoid phenotype. The rat strain used in the study is Lewis rat (7 weeks old, female) imported from Germany. Both bacterial challenge and drug administration were done intratracheally. All rats were challenged with mucoid P. aeruginosa in alginate. The concentration of the bacteria was 1×10^10 CFU/ml and each rat received 0.1 ml (1×10^9 CFU) bacteria. Control group received placebo (sterile saline, 0.1 ml/rat) twice at hour 0 and 3, and the Novispirin G10 group received the peptide (0.1 mg/ml, 0.1 ml/rat) twice at hour 0 and 3. The animals were sacrificed on day 3, 5, 7 and 10 after challenge for parameters evaluation. Supernatants of the lungs were harvested from days 3, 5 and 7 after lung infection and treatment. Interferon-gamma (IFN-γ), tumor necrosis factor-alpha (TNF-α), interleukin4 (IL4), IL-6 and IL-10 were measured by using ELISA kits (Nordic BioSite, Sweden).

**Q.** What does the source list for “Novispirin G10: novispirin antimicrobial polypeptide; amino acid sequence shown in SEQ ID NO: 16 (KNLRRIIRKGIHIIKKYG; Synthetic antimicrobial peptide)”?
**A.** Minimal Inhibitory Concentration (MIC) [1]: 1; Mean CFU per ml sample volume (chamber fluid) ([2]; 1 mg applied (1 ml of 1 mg/ml), 0.05 hours): 667 CFU/ml; Mean CFU per ml sample volume (chamber fluid) ([2]; 1 mg applied (1 ml of 1 mg/ml), 1 hour): 1933 CFU/ml; Mean CFU per ml sample volume (chamber fluid) ([2]; 1 mg applied (1 ml of 1 mg/ml), 2 hours): 1167 CFU/ml; Mean CFU per ml sample volume (chamber fluid) ([2]; 1 mg applied (1 ml of 1 mg/ml), 3 hours): 517 CFU/ml; Mean CFU per ml sample volume (chamber fluid) ([2]; 1 mg applied (1 ml of 1 mg/ml), 4 hours): 733 CFU/ml; Mean CFU per ml sample volume (chamber fluid) ([2]; 10 micrograms applied (1 ml of 10 micrograms/ml), 0.05 hours): 413869 CFU/ml; Mean CFU per ml sample volume (chamber fluid) ([2]; 10 micrograms applied (1 ml of 10 micrograms/ml), 1 hour): 1225733 CFU/ml; Mean CFU per ml sample volume (chamber fluid) ([2]; 10 micrograms applied (1 ml of 10 micrograms/ml), 2 hours): 34811 CFU/ml; Mean CFU per ml sample volume (chamber fluid) ([2]; 10 micrograms applied (1 ml of 10 micrograms/ml), 3 hours): 9612 CFU/ml; Mean CFU per ml sample volume (chamber fluid) ([2]; 10 micrograms applied (1 ml of 10 micrograms/ml), 4 hours): 17322 CFU/ml; Mean CFU per ml sample volume (chamber fluid) ([2]; 100 micrograms applied (1 ml of 100 micrograms/ml), 0.05 hours): 7383 CFU/ml; Mean CFU per ml sample volume (chamber fluid) ([2]; 100 micrograms applied (1 ml of 100 micrograms/ml), 1 hour): 138181 CFU/ml; Mean CFU per ml sample volume (chamber fluid) ([2]; 100 micrograms applied (1 ml of 100 micrograms/ml), 2 hours): 167413 CFU/ml; Mean CFU per ml sample volume (chamber fluid) ([2]; 100 micrograms applied (1 ml of 100 micrograms/ml), 3 hours): 11661 CFU/ml; Mean CFU per ml sample volume (chamber fluid) ([2]; 100 micrograms applied (1 ml of 100 micrograms/ml), 4 hours): 2467 CFU/ml; Lung cytokine responses (Mean + SD): IFN-gamma ([3]; Day 3, lung supernatant): 65.3 ± 28.6; Lung cytokine responses (Mean + SD): IL-4 ([3]; Day 3, lung supernatant): 34.5 ± 4.5; Lung cytokine responses (Mean + SD): IL-6 ([3]; Day 3, lung supernatant): 74.1 ± 10.0; Lung cytokine responses (Mean + SD): IL-10 ([3]; Day 3, lung supernatant): 51.7 ± 2.6; Lung cytokine responses (Mean + SD): TNF-alpha ([3]; Day 3, lung supernatant): 159.2 ± 23.8; Lung cytokine responses (Mean + SD): IFN-gamma ([3]; Day 5, lung supernatant): 116.6 ± 42.1; Lung cytokine responses (Mean + SD): IL-4 ([3]; Day 5, lung supernatant): 45.3 ± 5.9; Lung cytokine responses (Mean + SD): IL-6 ([3]; Day 5, lung supernatant): 65.2 ± 11.1; Lung cytokine responses (Mean + SD): IL-10 ([3]; Day 5, lung supernatant): 57.8 ± 7.6; Lung cytokine responses (Mean + SD): TNF-alpha ([3]; Day 5, lung supernatant): 128.1 ± 19.0; Lung cytokine responses (Mean + SD): IFN-gamma ([3]; Day 7, lung supernatant): 79.9 ± 16.2; Lung cytokine responses (Mean + SD): IL-4 ([3]; Day 7, lung supernatant): 37.3 ± 5.9; Lung cytokine responses (Mean + SD): IL-6 ([3]; Day 7, lung supernatant): 61.5 ± 11.0; Lung cytokine responses (Mean + SD): IL-10 ([3]; Day 7, lung supernatant): 51.3 ± 2.9; Lung cytokine responses (Mean + SD): TNF-alpha ([3]; Day 7, lung supernatant): 121.8 ± 19.6; All 5 kinds of cytokine levels compared to the control group ([3]; day 3, early phase of the infection): significantly lower
